Measured values reported in US20230123334A1, “AMINO LIPID COMPOUND, PREPARATION METHOD THEREFOR, AND APPLICATION THEREOF” (SHENZHEN SHENXIN BIOTECHNOLOGY CO., LTD., priority 2020, published 2023).

Test system: HEK293 cells
Test: Preliminary screening as DNA vectors, GFP transfection of HEK293 cells
Type: cell-based
Conditions: amino lipid/DOPE liposome with 75 ng plasmid DNA (psin-EGFP-IRES-Puro); number of GFP-expressing cells divided by total nuclei (Hoechst)
In short: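 HEK293 cells in DMEM/10% FBS transfected with 75 ng EGFP plasmid per well complexed with amino lipid/DOPE liposomes in pH 5.6 sodium acetate. Hoechst nuclear stain added 20-24 h post-transfection, then cells cultured another 20-24 h. Confocal imaging gives GFP-positive cells as % of total nuclei.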

SMILES	Absolute DNA transfection efficiency in HEK293 cells
CCCCCCCCCCCCCCCCSc1nc(NCCCCCC)nc(NCCN2CCOCC2)n1 [S16N6 D2]	16.5%
CCCCCCCCCCCCCCCCSc1nc(NCCCCCC)nc(NCCN2CCCC2)n1 [S16N6 D3]	35.3%
CCCCCCCCCCCCCCCCSc1nc(NCCCCCC)nc(NCCN2CCCCC2)n1 [S16N6 D4]	6.0%
CCCCCCCCCCCCCCCCSc1nc(NCCCCCC)nc(NCCN2CCN(C)CC2)n1 [S16N6 D5]	18.7%
CCCCCCCCCCCCCCCCSc1nc(NCCCCCC)nc(NCCCN(C)C)n1 [S16N6 D6]	24.1%
CCCCCCCCCCCCCCCCSc1nc(NCCCCCC)nc(NCCN(CC)CC)n1 [S16N6 D7]	5.8%
CCCCCCCCCCCCCCCCSc1nc(NCCCCCC)nc(NCCCN2CCOCC2)n1 [S16N6 D8]	11.6%
CCCCCCCCCCCCCCCCSc1nc(NCCCCCC)nc(NCCCN2CCN(C)CC2)n1 [S16N6 D9]	9.6%
CCCCCCCCCCCCCCCCSc1nc(NCCCCCC)nc(NCC2CCN(C)CC2)n1 [S16N6 D10]	14.5%
CCCCCCCCCCCCCCCCSc1nc(NCCCCCCC)nc(NCCN(C)C)n1 [S16N7 D1]	13.0%
CCCCCCCCCCCCCCCCSc1nc(NCCCCCCC)nc(NCCN2CCOCC2)n1 [S16N7 D2]	16.6%
CCCCCCCCCCCCCCCCSc1nc(NCCCCCCC)nc(NCCN2CCCC2)n1 [S16N7 D3]	8.9%
CCCCCCCCCCCCCCCCSc1nc(NCCCCCCC)nc(NCCN2CCCCC2)n1 [S16N7 D4]	6.9%
CCCCCCCCCCCCCCCCSc1nc(NCCCCCCC)nc(NCCN2CCN(C)CC2)n1 [S16N7 D5]	10.1%
CCCCCCCCCCCCCCCCSc1nc(NCCCCCCC)nc(NCCCN(C)C)n1 [S16N7 D6]	12.9%
CCCCCCCCCCCCCCCCSc1nc(NCCCCCCC)nc(NCCN(CC)CC)n1 [S16N7 D7]	7.3%
CCCCCCCCCCCCCCCCSc1nc(NCCCCCCC)nc(NCCCN2CCOCC2)n1 [S16N7 D8]	12.0%
CCCCCCCCCCCCCCCCSc1nc(NCCCCCCC)nc(NCCCN2CCN(C)CC2)n1 [S16N7 D9]	9.8%
CCCCCCCCCCCCCCCCSc1nc(NCCCCCCC)nc(NCC2CCN(C)CC2)n1 [S16N7 D10]	3.4%
CCCCCCCCCCCCCCCCSc1nc(NCCCCCCCC)nc(NCCN(C)C)n1 [S16N8 D1]	10.0%
CCCCCCCCCCCCCCCCSc1nc(NCCCCCCCC)nc(NCCN2CCOCC2)n1 [S16N8 D2]	14.6%
CCCCCCCCCCCCCCCCSc1nc(NCCCCCCCC)nc(NCCN2CCCC2)n1 [S16N8 D3]	13.2%
CCCCCCCCCCCCCCCCSc1nc(NCCCCCCCC)nc(NCCN2CCCCC2)n1 [S16N8 D4]	8.4%
CCCCCCCCCCCCCCCCSc1nc(NCCCCCCCC)nc(NCCN2CCN(C)CC2)n1 [S16N8 D5]	6.7%

SMILES	Absolute DNA transfection efficiency in HEK293 cells
CCCCCCCCCCCCCCCCSc1nc(NCCCCCCCC)nc(NCCCN(C)C)n1 [S16N8 D6]	11.1%
CCCCCCCCCCCCCCCCSc1nc(NCCCCCCCC)nc(NCCN(CC)CC)n1 [S16N8 D7]	4.6%
CCCCCCCCCCCCCCCCSc1nc(NCCCCCCCC)nc(NCCCN2CCOCC2)n1 [S16N8 D8]	16.5%
CCCCCCCCCCCCCCCCSc1nc(NCCCCCCCC)nc(NCCCN2CCN(C)CC2)n1 [S16N8 D9]	10.9%
CCCCCCCCCCCCCCCCSc1nc(NCCCCCCCCC)nc(NCCN(C)C)n1 [S16N9 D1]	7.5%
CCCCCCCCCCCCCCCCSc1nc(NCCCCCCCCC)nc(NCCN2CCOCC2)n1 [S16N9 D2]	7.4%
CCCCCCCCCCCCCCCCSc1nc(NCCCCCCCCC)nc(NCCN2CCCC2)n1 [S16N9 D3]	13.7%
CCCCCCCCCCCCCCCCSc1nc(NCCCCCCCCC)nc(NCCN2CCCCC2)n1 [S16N9 D4]	9.1%
CCCCCCCCCCCCCCCCSc1nc(NCCCCCCCCC)nc(NCCN2CCN(C)CC2)n1 [S16N9 D5]	7.8%
CCCCCCCCCCCCCCCCSc1nc(NCCCCCCCCC)nc(NCCCN(C)C)n1 [S16N9 D6]	11.7%
CCCCCCCCCCCCCCCCSc1nc(NCCCCCCCCC)nc(NCCN(CC)CC)n1 [S16N9 D7]	5.3%
CCCCCCCCCCCCCCCCSc1nc(NCCCCCCCCC)nc(NCCCN2CCOCC2)n1 [S16N9 D8]	6.7%
CCCCCCCCCCCCCCCCSc1nc(NCCCCCCCCC)nc(NCCCN2CCN(C)CC2)n1 [S16N9 D9]	9.5%
CCCCCCCCCCCCCCCCSc1nc(NCCCCCCCCC)nc(NCC2CCN(C)CC2)n1 [S16N9 D10]	6.9%
CCCCCCCCCCCCCCCCSc1nc(NCCCCCCCCCCC)nc(NCCN(C)C)n1 [S16N11 D1]	17.2%
CCCCCCCCCCCCCCCCSc1nc(NCCCCCCCCCCC)nc(NCCN2CCOCC2)n1 [S16N11 D2]	9.6%
CCCCCCCCCCCCCCCCSc1nc(NCCCCCCCCCCC)nc(NCCN2CCCC2)n1 [S16N11 D3]	16.6%
CCCCCCCCCCCCCCCCSc1nc(NCCCCCCCCCCC)nc(NCCN2CCCCC2)n1 [S16N11 D4]	5.8%
CCCCCCCCCCCCCCCCSc1nc(NCCCCCCCCCCC)nc(NCCN2CCN(C)CC2)n1 [S16N11 D5]	9.5%
CCCCCCCCCCCCCCCCSc1nc(NCCCCCCCCCCC)nc(NCCCN(C)C)n1 [S16N11 D6]	10.3%
CCCCCCCCCCCCCCCCSc1nc(NCCCCCCCCCCC)nc(NCCN(CC)CC)n1 [S16N11 D7]	15.5%
CCCCCCCCCCCCCCCCSc1nc(NCCCCCCCCCCC)nc(NCCCN2CCOCC2)n1 [S16N11 D8]	5.0%
CCCCCCCCCCCCCCCCSc1nc(NCCCCCCCCCCC)nc(NCCCN2CCN(C)CC2)n1 [S16N11 D9]	9.6%
CCCCCCCCCCCCCCCCSc1nc(NCCCCCCCCCCC)nc(NCC2CCN(C)CC2)n1 [S16N11 D10]	0.0%

SMILES	Absolute DNA transfection efficiency in HEK293 cells
CCCCCCCCCCCCCCCCSc1nc(NCCCCCCCCCCCC)nc(NCCN(C)C)n1 [S16N12 D1]	4.2%
CCCCCCCCCCCCCCCCSc1nc(NCCCCCCCCCCCC)nc(NCCN2CCOCC2)n1 [S16N12 D2]	0.0%
CCCCCCCCCCCCCCCCSc1nc(NCCCCCCCCCCCC)nc(NCCN2CCCC2)n1 [S16N12 D3]	3.9%
CCCCCCCCCCCCCCCCSc1nc(NCCCCCCCCCCCC)nc(NCCN2CCCCC2)n1 [S16N12 D4]	0.0%
CCCCCCCCCCCCCCCCSc1nc(NCCCCCCCCCCCC)nc(NCCN2CCN(C)CC2)n1 [S16N12 D5]	1.9%
CCCCCCCCCCCCCCCCSc1nc(NCCCCCCCCCCCC)nc(NCCCN(C)C)n1 [S16N12 D6]	2.7%
CCCCCCCCCCCCCCCCSc1nc(NCCCCCCCCCCCC)nc(NCCN(CC)CC)n1 [S16N12 D7]	0.7%
CCCCCCCCCCCCCCCCSc1nc(NCCCCCCCCCCCC)nc(NCCCN2CCOCC2)n1 [S16N12 D8]	0.0%
CCCCCCCCCCCCCCCCSc1nc(NCCCCCCCCCCCC)nc(NCCCN2CCN(C)CC2)n1 [S16N12 D9]	11.4%
CCCCCCCCCCCCCCCCSc1nc(NCCCCCCCCCCCC)nc(NCC2CCN(C)CC2)n1 [S16N12 D10]	2.1%
CCCCCCCCCCCCCCCCSc1nc(NCCCCCCCCCCCCC)nc(NCCN(C)C)n1 [S16N13 D1]	1.2%
CCCCCCCCCCCCCCCCSc1nc(NCCCCCCCCCCCCC)nc(NCCN2CCOCC2)n1 [S16N13 D2]	0.0%
CCCCCCCCCCCCCCCCSc1nc(NCCCCCCCCCCCCC)nc(NCCN2CCCC2)n1 [S16N13 D3]	1.5%
CCCCCCCCCCCCCCCCSc1nc(NCCCCCCCCCCCCC)nc(NCCN2CCCCC2)n1 [S16N13 D4]	0.0%
CCCCCCCCCCCCCCCCSc1nc(NCCCCCCCCCCCCC)nc(NCCN2CCN(C)CC2)n1 [S16N13 D5]	0.8%
CCCCCCCCCCCCCCCCSc1nc(NCCCCCCCCCCCCC)nc(NCCCN(C)C)n1 [S16N13 D6]	1.2%
CCCCCCCCCCCCCCCCSc1nc(NCCCCCCCCCCCCC)nc(NCCN(CC)CC)n1 [S16N13 D7]	3.7%
CCCCCCCCCCCCCCCCSc1nc(NCCCCCCCCCCCCC)nc(NCCCN2CCOCC2)n1 [S16N13 D8]	0.2%
CCCCCCCCCCCCCCCCSc1nc(NCCCCCCCCCCCCC)nc(NCCCN2CCN(C)CC2)n1 [S16N13 D9]	5.7%
CCCCCCCCCCCCCCCCSc1nc(NCCCCCCCCCCCCC)nc(NCC2CCN(C)CC2)n1 [S16N13 D10]	2.0%
CCCCCCCCCCCCCCCCSc1nc(NCCCCCCCCCCCCCCC)nc(NCCN(C)C)n1 [S16N15 D1]	1.6%
CCCCCCCCCCCCCCCCSc1nc(NCCCCCCCCCCCCCCC)nc(NCCN2CCOCC2)n1 [S16N15 D2]	0.0%
